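Step 1: Grow cells in 96-well plates. Step 2: Expose to compound for 48 hours at 5 concentrations. Step 3: Interpolate endpoints linearly; if unreached, use highest concentration. GI50: concentration for 50% inhibition of growth. TGI marks complete inhibition of growth.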
Columns and labels:
Assay in all cases: inhibition of tumour cell growth, NCI panel, 48 h
SN12C renal = system: SN12C renal
EKVX NSCLC = system: EKVX NSCLC
SK-MEL-2 melanoma = system: SK-MEL-2 melanoma
HCT-116 colon = system: HCT-116 colon
A549 NSCLC = system: A549 NSCLC
HCC-2998 colon = system: HCC-2998 colon
SK-OV-3 ovarian = system: SK-OV-3 ovarian
SK-MEL-28 melanoma = system: SK-MEL-28 melanoma
HOP-62 NSCLC = system: HOP-62 NSCLC
SR leukemia = system: SR leukemia

Structure (SMILES) | TGI (SN12C renal) | TGI (EKVX NSCLC) | TGI (SK-MEL-2 melanoma) | TGI (HCT-116 colon) | TGI (A549 NSCLC) | TGI (HCC-2998 colon) | TGI (SK-OV-3 ovarian) | TGI (SK-MEL-28 melanoma) | TGI (HOP-62 NSCLC) | GI50 (SN12C renal) | GI50 (SK-MEL-2 melanoma) | GI50 (HCT-116 colon) | GI50 (A549 NSCLC) | GI50 (HCC-2998 colon) | GI50 (SK-OV-3 ovarian) | GI50 (SK-MEL-28 melanoma) | GI50 (SR leukemia) | TGI (SR leukemia) | GI50 (HOP-62 NSCLC) | GI50 (EKVX NSCLC)
CC(C)(C)NCC(COc1ccc([N+](=O)[O-])cc1)OP(c1ccccc1)c1ccccc1 (centres undefined) | > 100 µM | > 100 µM | > 100 µM | > 100 µM | > 100 µM | > 100 µM | > 100 µM | > 100 µM | > 100 µM | – | – | – | – | – | – | – | – | – | – | –
O=C1[C@H]2ON(c3ccccc3)C(c3ccco3)[C@H]2C(=O)N1c1ccc(Cc2ccc(N3C(=O)[C@@H]4ON(c5ccccc5)C(c5ccco5)[C@@H]4C3=O)cc2)cc1 (some centres undefined) | > 100 µM | – | > 100 µM | – | > 100 µM | > 100 µM | > 100 µM | > 100 µM | > 100 µM | – | – | – | – | – | – | – | – | – | – | –
COc1cc(CNc2nc3ccc(C(F)(F)F)cc3nc2-c2ccccc2)cc(OC)c1OC | > 100 µM | 59.6 µM | > 100 µM | > 100 µM | > 100 µM | > 100 µM | > 100 µM | > 100 µM | > 100 µM | – | – | – | – | – | – | – | – | – | – | –
OCc1ccc(N2CCOCC2)cc1Cl | > 100 µM | – | > 100 µM | > 100 µM | > 100 µM | > 100 µM | > 100 µM | > 100 µM | > 100 µM | > 100 µM | > 100 µM | 28.6 µM | > 100 µM | > 57.1 µM | > 100 µM | > 100 µM | > 100 µM | > 100 µM | > 100 µM | –
O=C1/C(=C/c2ccc([N+](=O)[O-])cc2)COc2ccc(O)cc21 | 6.85 µM | > 100 µM | > 100 µM | 3.43 µM | > 100 µM | 3.21 µM | > 100 µM | 22.9 µM | > 100 µM | 2.22 µM | 73 µM | 1.67 µM | 78 µM | 1.74 µM | > 100 µM | 5.11 µM | – | – | 49.8 µM | 42.7 µM
N#Cc1c(-c2ccco2)cc(-c2ccccc2)[nH]c1=O | > 100 µM | > 100 µM | – | > 100 µM | > 100 µM | > 100 µM | > 100 µM | > 100 µM | > 100 µM | – | – | – | – | – | – | – | – | > 100 µM | – | –
COc1ccc(-c2cnoc2-c2cc(OC)c3c(c2)OCCO3)cc1 | > 94.3 µM | – | 16.2 µM | > 37 µM | > 100 µM | 22 µM | 2.8 µM | > 100 µM | 56.6 µM | 0.402 µM | 0.0279 µM | 0.0396 µM | 0.048 µM | 0.083 µM | 0.0312 µM | 10.1 µM | 0.0226 µM | 6.29 µM | 0.0319 µM | –
c1ccc2[nH]c(CNc3ccc(C4C[Se]N=N4)cc3)nc2c1 (centres undefined) | > 100 µM | – | > 100 µM | > 100 µM | > 100 µM | > 100 µM | > 100 µM | > 100 µM | > 100 µM | – | – | – | – | – | – | – | – | 36 µM | – | –
O=C1c2cccc3cccc(c23)C(=O)N1O | > 100 µM | > 100 µM | > 100 µM | > 100 µM | > 100 µM | > 100 µM | > 100 µM | > 100 µM | – | – | – | – | – | – | – | – | – | – | – | –
N#C/C(=C1\SC(N=Nc2ccc(Cl)cc2)C(=O)N1c1ccccc1)c1nc2ccccc2[nH]1 (centres undefined) | > 100 µM | > 100 µM | 62 µM | > 100 µM | 87.3 µM | – | 35.6 µM | > 100 µM | 35.4 µM | – | – | – | – | – | – | – | – | – | – | –
COc1ccc(Nc2nccc(N3CCN(c4c5ccc(Cl)cc5nc5ccc(OC)cc45)CC3)n2)cc1 | > 100 µM | – | – | > 100 µM | > 100 µM | > 100 µM | > 100 µM | > 100 µM | > 100 µM | 6.06 µM | – | 3.87 µM | 7.51 µM | 23.5 µM | 53.1 µM | 39.5 µM | 2.92 µM | > 100 µM | 38.7 µM | –
Cc1cc(C)n(C2=NS(=O)(=O)c3ccccc3N2C)n1 | > 100 µM | > 100 µM | > 100 µM | > 100 µM | > 100 µM | > 100 µM | > 100 µM | > 100 µM | > 100 µM | – | – | – | – | – | – | – | – | – | – | –
C=C1C(=O)C23C(O)C1CC[C@H]2C12CCCC(C)(COC(C)=O)[C@H]1[C@H](O)[C@]3(O)OC2 (some centres undefined) | 3.44 µM | 9.67 µM | 3.49 µM | 2.3 µM | 9.95 µM | 3.32 µM | 13.3 µM | 2.97 µM | 8.56 µM | – | – | – | – | – | – | – | – | – | – | –
Cc1cc2c(cc1Cl)S/C(=C/C(=O)O)C(Nc1cccc3nsnc13)=NS2(=O)=O | > 53.4 µM | > 19.9 µM | > 77.8 µM | > 59.2 µM | > 81.3 µM | – | > 62.5 µM | 19.4 µM | > 66.9 µM | 27 µM | > 58.6 µM | 33.5 µM | > 51 µM | – | > 49.5 µM | 8.06 µM | 32.8 µM | > 100 µM | > 54.8 µM | > 10.5 µM
Cc1ccc(NC(=O)/C(Cc2nc3ccc([N+](=O)[O-])cc3[nH]c2=O)=N\NC(=O)C[n+]2ccccc2)c(C)c1 | 98.1 µM | > 100 µM | > 100 µM | > 100 µM | > 100 µM | > 100 µM | 56.5 µM | > 100 µM | > 100 µM | – | – | – | – | – | – | – | – | – | – | –
CCOC(=O)N1CCN(CCCCCOc2ccccc2C2CCCCC2)CC1 | 22.2 µM | 16.5 µM | – | 9.65 µM | 17.3 µM | – | 19.1 µM | 16.3 µM | 8.05 µM | 6.34 µM | – | 2.16 µM | 5.01 µM | – | 6.08 µM | 2.87 µM | – | – | 2.52 µM | 3.23 µM
C[C@]12C/C(=C/O)C(=O)C(O)=C1CC[C@@H]1C2CC[C@@]2(C)C1CC[C@@H]2O (some centres undefined) | 61.1 µM | 72.8 µM | 55.4 µM | – | > 100 µM | – | 65.5 µM | 48.2 µM | > 100 µM | – | – | – | – | – | – | – | – | – | – | –
Cc1cccc(N=Nc2ccc(N=Nc3c(O)ccc4ccccc34)cc2C)c1 | – | > 100 µM | > 100 µM | > 100 µM | > 100 µM | > 100 µM | 92.4 µM | > 100 µM | 89.6 µM | – | – | – | – | – | – | – | – | 49.5 µM | – | –
CC(C)[O-].CC(C)[O-].O=c1cccccc1[O-].O=c1cccccc1[O-].[Ti+4] | – | > 100 µM | > 100 µM | > 100 µM | > 100 µM | > 100 µM | > 100 µM | > 100 µM | > 100 µM | – | – | – | – | – | – | – | – | > 100 µM | > 100 µM | –
